Holding throughout (assay): growth of human tumour cells (NCI), 48 h
The test system of experiment [1] is HCT-116 colon.
Experiment [2] has as its system SF-268 CNS.
Experiment [3] relates to HL-60(TB) leukemia.
Experiment [4] has as its system T-47D breast.
Experiment [5] has as its system UO-31 renal.
Experiment [6] has as its system LOX IMVI melanoma.
Experiment [7] has as its system M14 melanoma.
Experiment [8] relates to SF-295 CNS.
The test system of experiment [9] is SK-MEL-2 melanoma.
Experiment [10] relates to RXF 393 renal.
Experiment [11] relates to DU-145 prostate.
Experiment [12] has as its system COLO 205 colon.
Experiment [13] deals with HS 578T breast.
For experiment [14], the system named is HCT-15 colon.
Experiment [15] relates to UACC-257 melanoma.
The subject of experiment [16] is SR leukemia.

Among the data in PubChem BioAssay (NCI) are TGI and GI50 values, retold here.

“And” between values parts separate entries of the source, which are not always exact repeats. Identical values can stand only once.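 Method: 48-hour compound exposure of cells in 96-well plates, five concentrations, linear interpolation of endpoints. GI50 marks 50% less growth. TGI marks complete inhibition of growth.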

Turning to `c1ccc([P+](c2ccccc2)(c2ccccc2)C2c3ccccc3-c3ccccc32)cc1`, the TGI in experiment [1] came out at 2.39 µM; in experiment [2], 9.37 µM; in [3], 3.92 µM; in experiment [4] it was 12.5 µM; in experiment [5], 8.03 µM; in experiment [6], 4.96 µM. Also, the TGI in [7] was determined as 11.3 µM; in experiment [8], 5.35 µM; in experiment [9] it was 3.87 µM; in experiment [10], 5.06 µM; in experiment [11], 60.6 µM; in [12], 2.63 µM. Moreover, the TGI in [13] was found to be 5.75 µM; in experiment [14] it was 11 µM; in experiment [15], 5.91 µM.
Consider `O=Nc1c(O)cc(Nc2cccnc2)c2ccccc12`, for which the TGI is > 100 µM in experiment [1]; 53.4 µM in [2]; 5.65 µM in experiment [3]; > 100 µM in experiment [4]; > 100 µM in [5]; > 100 µM in experiment [6]. Besides, the TGI in [7] is > 100 µM; in experiment [8], > 100 µM; in experiment [9] it was > 100 µM; in experiment [10] it was > 100 µM; in [11], > 100 µM; in experiment [12], 42.5 µM. Also, the TGI is > 100 µM in [13], 64.1 µM in experiment [14] and > 100 µM in [15].
Regarding `CNC(=O)NS(=O)(=O)c1ccc(C)cc1`, the TGI in experiment [1], in [2], in experiment [3], in [4], in [5] and in [6] was > 100 µM in each case. In addition, the TGI in [7], in experiment [8], in experiment [9], in experiment [10], in experiment [11] and in experiment [12] was > 100 µM each time. For the same molecule, the TGI in experiment [13], in [14] and in experiment [15] was > 100 µM in each case.
Take `CCCCC(=O)Nc1ccc2c(C)cc(-c3ccc(-c4cc(-c5ccc(C)cc5)cc(-c5ccc(-c6cc(C)c7ccc(NC(=O)CCCC)nc7n6)cc5)n4)cc3)nc2n1`: the TGI in [1], in experiment [2], in experiment [4], in experiment [5], in [7] and in experiment [8] was > 100 µM throughout. The TGI in experiment [9], in experiment [11], in [12], in [14] and in experiment [15] was > 100 µM throughout.
For the molecule `S=C(N1CCN(c2ccccc2)CC1)N1CCN(c2ccccc2)CC1`, the TGI in experiment [1], in experiment [2], in [4], in experiment [5], in experiment [7] and in experiment [8] was > 100 µM each time. In addition, the TGI in experiment [9], in experiment [10], in [11], in experiment [12], in [13] and in experiment [14] was > 100 µM in each case. In experiment [15], the TGI was > 100 µM.
As for `CCCNC(=O)N1CC(CN2CCN(c3ccccc3)CC2)O/C1=N/C(=O)Nc1ccccc1` (centres undefined), the TGI in experiment [1], in experiment [2], in [3], in [4], in [5] and in experiment [6] was > 100 µM in each case. Also, the TGI in experiment [7] was > 100 µM; in [8], > 100 µM; in experiment [9], > 100 µM; in experiment [10] it was > 100 µM; in experiment [11] it was > 100 µM; in experiment [12] it was 74.1 µM. For the same molecule, the TGI in experiment [13] and in experiment [15] was > 100 µM throughout.
Take `CCCNC(=O)N(C)C(=O)N1N=C(c2ccccc2)C1c1ccccc1` (centres undefined): the TGI in experiment [1], in experiment [4], in [5], in experiment [6], in experiment [7] and in experiment [8] was > 100 µM each time. Besides, the TGI in experiment [9], in [10], in experiment [11], in experiment [12], in [14] and in experiment [15] was > 100 µM throughout.
Regarding `COc1cc2c[n+](C)c3c4cc(OC)c(OC)cc4ccc3c2cc1OC`, the TGI in [1] is > 100 µM; in [2] it was > 100 µM and 37.6 µM; in experiment [4], > 100 µM; in experiment [5], > 100 µM; in [6], > 100 µM; in experiment [7], > 100 µM. The TGI in experiment [8] was > 100 µM; in [9], > 100 µM; in experiment [10] it was > 100 µM; in experiment [11], > 100 µM; in experiment [12], 42.8 µM and 39.9 µM; in [13], > 100 µM. The TGI in experiment [14] and in [15] was > 100 µM in each case. Moreover, the GI50 in experiment [2] is 22.6 µM and 3.32 µM; in experiment [4] it was > 100 µM and 10.1 µM; in experiment [10] it was > 100 µM and 28.5 µM; in experiment [13], > 100 µM and 10.3 µM.
On to `O=c1c2ccccc2[nH]c2c(Cl)cc(Cl)c(N3CCCCC3)c12`, for which the TGI was > 100 µM in experiment [1]; 74.7 µM in experiment [3]; > 100 µM in [4]; 55.5 µM in [5]; > 100 µM in experiment [6]; 88.9 µM in experiment [7]. The TGI is > 100 µM in [16]; > 100 µM in [8]; 59.1 µM in experiment [9]; > 100 µM in experiment [12]; > 100 µM in experiment [14]; > 100 µM in [15].
On to `N#Cc1c(N2CCN(c3ccc([N+](=O)[O-])cc3)CC2)[n+](=O)c2ccccc2n1[O-]`, for which the TGI in experiment [1] was > 100 µM; in [2] it was 0.921 µM; in experiment [4] it was > 100 µM; in experiment [6], > 100 µM; in experiment [7] it was > 100 µM; in [16] it was 5.69 µM. In addition, the TGI in experiment [8], in experiment [9], in experiment [10], in experiment [11], in [12] and in [14] was > 100 µM throughout. Besides, the TGI in experiment [15] was > 100 µM.
Turning to `O=C1/C(=C/c2ccc(Cl)cc2)CSC/C1=C\c1ccc(Cl)cc1`, the TGI in [1] was 3.69 µM; in experiment [2], 22 µM; in experiment [3], 3.69 µM; in experiment [4], 23.2 µM; in experiment [5], 3.93 µM; in experiment [6] it was 5.3 µM. Also, the TGI in [7] is 3.92 µM; in experiment [16] it was 8.15 µM; in [8], 4.21 µM; in experiment [9], 37.8 µM; in [10] it was 3.36 µM; in experiment [11], 24.8 µM. The TGI in [12] was 7.26 µM; in experiment [14], > 100 µM; in experiment [15] it was 5.08 µM.
For `COC(=O)C1=C(CCC[C@H](C)O[Si](C)(C)C(C)(C)C)NC(=O)N2[C@@H](CCO)CC[C@H]12`, the TGI was 20 µM in experiment [1]; 28.6 µM in experiment [2]; 32.9 µM in experiment [4]; 29.7 µM in experiment [5]; 32.7 µM in experiment [6]; 30.9 µM in experiment [7]. The TGI in experiment [8] is 25.1 µM; in [10], 27.5 µM; in experiment [11], 44.4 µM; in experiment [12], 34 µM; in experiment [14], 28.9 µM; in experiment [15], 28.9 µM.
With `CCCCCCCCOC(=O)c1cc([N+](=O)[O-])c(Sc2ncnc3nc[nH]c23)c([N+](=O)[O-])c1`, the TGI came to 5.35 µM in experiment [1]; 8.47 µM in experiment [2]; 9.82 µM in experiment [3]; 3.31 µM in [4]; 19.9 µM in experiment [5]; 1.24 µM in [6]. Moreover, the TGI was 26.9 µM in [7]; 11.2 µM in experiment [8]; 17.7 µM in experiment [9]; > 47.6 µM in experiment [10]; 18.6 µM in experiment [11]; 3.68 µM in experiment [12]. The TGI in experiment [13] was determined as 70.9 µM; in experiment [14] it was 20.6 µM; in experiment [15], 28 µM.
Turning to `COc1cc(C2c3c(ccc4ccccc34)C(=O)C3CCC(=O)N32)cc(OC)c1O` (centres undefined), the TGI in experiment [1], in [3], in experiment [4], in experiment [5], in experiment [7] and in experiment [16] was > 25 µM each time. The TGI in experiment [8], in experiment [9], in [10], in [11], in experiment [12] and in [14] was > 25 µM each time. The TGI in experiment [15] is > 25 µM.
As for `N#Cc1c(O)c2ccccc2[nH]c1=O`, the TGI in [1], in [3], in experiment [4], in experiment [5], in [6] and in experiment [7] was > 100 µM throughout. For the same molecule, the TGI in [8], in experiment [9], in experiment [10], in experiment [11], in experiment [12] and in experiment [14] was > 100 µM throughout. Moreover, the TGI in [15] was > 100 µM.
As for `COC1=CC(=O)C2=C(C[C@@]3(C)C(=C2)C(CO)=CC[C@H]3O)C1=O`, the TGI was 40.8 µM in [1]; 32.7 µM in experiment [2]; 14.1 µM in experiment [3]; > 100 µM in experiment [4]; 39.5 µM in experiment [5]; 38.9 µM in experiment [6]. The TGI is 44.2 µM in experiment [7]; 41.2 µM in [8]; 30.9 µM in [10]; > 100 µM in experiment [11]; 65.9 µM in [12]; > 100 µM in [13]. In addition, the TGI is 88.5 µM in experiment [14] and 36.9 µM in experiment [15].
For the molecule `O=C1NC(=S)NC(=O)C1=C/C=C/c1ccc([N+](=O)[O-])cc1`, the TGI was 37.2 µM in experiment [1]; 36.8 µM in experiment [2]; > 100 µM in [3]; 71.4 µM in experiment [4]; 33.5 µM in experiment [5]; 22.6 µM in experiment [6]. Also, the TGI was 30.8 µM in experiment [7]; 33.1 µM in experiment [8]; 30.9 µM in [9]; 26.8 µM in experiment [10]; 32.7 µM in [11]; 33.6 µM in [12]. Also, the TGI in experiment [13] is 44.6 µM; in experiment [14], 31.7 µM; in experiment [15], 30.8 µM.
Take `[N-]=[N+]=CC(=O)CCC(=O)N(c1ccccc1)c1ccccc1`: the TGI in experiment [1], in [2], in experiment [3], in experiment [4], in [5] and in [6] was > 10 µM each time. For the same molecule, the TGI in experiment [7], in [16], in experiment [8], in experiment [9], in experiment [10] and in experiment [11] was > 10 µM each time. The TGI in experiment [14] and in [15] was > 10 µM each time.
For the molecule `CCCCOC(=O)c1cc(C(=CCC[C@H]2CC[C@@]3(C)[C@@H](CC[C@@H]4[C@@H]3CC[C@]3(C)[C@@H](C(C)CCCC(C)C)CC[C@@H]43)C2)c2cc(Cl)c(O)c(C(=O)OCCCC)c2)cc(Cl)c1O` (some centres undefined), the TGI in experiment [1], in [2], in experiment [3], in [4], in experiment [6] and in experiment [9] was > 50 µM each time. The TGI in experiment [11], in [12], in [13] and in [14] was > 50 µM throughout.
